Experimental findings from patent publication US7732473B2, “Compounds with nootropic action, their preparation, pharmaceutical compositions containing them, and use thereof” (Neurotune AG, priority 2006, dated 2010) are described below.

Series [1] relates to rat model of mononeuropathy dx. The experiment in a line: Paw-pressure test in rat chronic constriction injury model of mononeuropathy, injured paw (dx). The series is classed as in vivo. Particulars: i.c.v., dose per compound (3-300 μg); paw-pressure test 14 days after operation. An excerpt: Pharmacological Methods Chronic Constriction Injury Model
A peripheral mononeuropathy was produced in adult rats by placing loosely constrictive ligatures around the common sciatic nerve according to the method described by Bennett & Xie (Pain […], 33, 87-107).
Rats were anesthetized with chloral hydrate. The common sciatic nerve was exposed at the level of the middle of the thigh by blunt dissection through biceps femoris. Proximal to sciatica's trifurcation, about 1 cm of the nerve was freed of adhering tissue and four ligatures (3/0 silk tread) were tied loosely around it with about 1 mm spacing. The length of the nerve thus affected was […]. Great care was taken to tie the ligatures such that the diameter of the nerve was seen to be just barely constricted when viewed with 40× magnification. The left paw was untouched.
The nociceptive threshold in the rat was determined with an analgesimeter (Ugo Basile, Varese, Italy), according to the method described by Leighton et al. (Br. J. Pharmacol. 1988, 93, 553-560). Rats scoring below 40 g or over 75 g during the test before drug administration (25%) were rejected. An arbitrary cut-off value of 250 g was adopted.

A word on the melting point: it is the temperature, or range, at which the solid turns liquid. Regarding `N#Cc1ccc(N2C(=O)CN3C(=O)CCC32)cc1` (stereo not drawn), the melting point lay within 175 to 176 °C.

Take `O=C1CN2C(=O)CCC2N1` (stereo not drawn) [DIMIRACETAM, 2,5-dioxohexahydro-1H-pyrrolo[1,2-a]imidazole, reference compound]: the “antihyperalgic effect compared with saline or vehicle treated group” value in series [1] is “showed an antihyperalgic effect”.

Consider `O=C1CCC2N1CC(=O)N2c1ccccc1` (stereo not drawn) [Example 1, 1-Phenyl-tetrahydro-1H-pyrrolo[1,2-a]imidazole-2,5-dione], for which the melting point lay in the range of 185 to 188 °C. For the same compound, the “antihyperalgic effect compared with saline or vehicle treated group” value in series [1] was “showed an antihyperalgic effect”. For `Cc1ccccc1N1C(=O)CN2C(=O)CCC21` (stereo not drawn) [Example 2, 1-o-tolyl-tetrahydro-1H-pyrrolo[1,2-a]imidazole-2,5-dione], in that order: 138 to 139 °C and “showed an antihyperalgic effect”.

Consider `O=C1CCC2N1CC(=O)N2c1cccs1` (stereo not drawn) [Example 4, 1-Thiophen-2-yl-tetrahydro-pyrrolo[1,2-a]imidazole-2,5-dione], for which the melting point fell in the range of 170 to 171 °C. For the compound `Cc1cccc(N2C(=O)CN3C(=O)CCC32)c1` (stereo not drawn) [Example 5, 1-m-Tolyl-tetrahydro-pyrrolo[1,2-a]imidazole-2,5-dione], the melting point fell in the range of 92 to 93 °C. The “antihyperalgic effect compared with saline or vehicle treated group” value in series [1] was “showed an antihyperalgic effect”. For `Cc1ccc(N2C(=O)CN3C(=O)CCC32)cc1` (stereo not drawn) [Example 6, 1-p-Tolyl-tetrahydro-pyrrolo[1,2-a]imidazole-2,5-dione], the “antihyperalgic effect compared with saline or vehicle treated group” value in series [1] is given as “showed an antihyperalgic effect”. Regarding `Cc1ccc(F)cc1N1C(=O)CN2C(=O)CCC21` (stereo not drawn) [Example 7, 1-(5-Fluoro-2-methyl-phenyl)-tetrahydro-pyrrolo[1,2-a]imidazole-2,5-dione], the melting point lay in the range of 147 to 148 °C. Same read-out and setting: for `Cc1c(F)cccc1N1C(=O)CN2C(=O)CCC21` (stereo not drawn) [Example 8] the value was 135 to 137 °C; for `Cc1cc(Cl)ccc1N1C(=O)CN2C(=O)CCC21` (stereo not drawn) [Example 10, 1-(4-Chloro-2-methyl-phenyl)-tetrahydro-pyrrolo[1,2-a]imidazole-2,5-dione], 122 to 124 °C; for `O=C1CCC2N1CC(=O)N2c1cccc(Cl)c1` (stereo not drawn) [Example 11, 1-(3-Chloro-phenyl)-tetrahydro-pyrrolo [1,2-a]imidazole-2,5-dione], 123 to 125 °C. Still for that read-out and setting: for `COc1cccc(N2C(=O)CN3C(=O)CCC32)c1` (stereo not drawn) [Example 12, 1-(3-Methoxy-phenyl)-tetrahydro-pyrrolo [1,2-a]imidazole-2,5-dione] the value was 94 to 95 °C. `N#Cc1cccc(N2C(=O)CN3C(=O)CCC32)c1` (stereo not drawn) [Example 13, 1-(3-Cyano-phenyl)-tetrahydro-pyrrolo [1,2-a]imidazole-2,5-dione] returned a melting point of 128 to 130 °C. Moreover, the “antihyperalgic effect compared with saline or vehicle treated group” value in series [1] is “showed an antihyperalgic effect”. The compound `O=C1CCC2N1CC(=O)N2c1ccc(Cl)cc1` (stereo not drawn) [Example 14, 1-(4-Chloro-phenyl)-tetrahydro-pyrrolo [1,2-a]imidazole-2,5-dione] gave a melting point of 159 to 160 °C. On the same count and under the same terms, for `O=C1CCC2N1CC(=O)N2c1cccc(O)c1` (stereo not drawn) [Example 15, 1-(3-Hydroxy-phenyl)-tetrahydro-pyrrolo [1,2-a]imidazole-2,5-dione] the value was 210 to 211 °C; for `COc1ccc(N2C(=O)CN3C(=O)CCC32)cc1` (stereo not drawn) [Example 18, 1-(4-Methoxy-phenyl)-tetrahydro-pyrrolo[1,2-a]imidazole-2,5-dione], 210 to 211 °C. Same read-out and setting: for `Cc1cc(C)cc(N2C(=O)CN3C(=O)CCC32)c1` (stereo not drawn) [Example 19, 1-(3,5-Dimethyl-phenyl)-tetrahydro-pyrrolo [1,2-a]imidazole-2,5-dione] the value was 103 to 104 °C; for `Cc1ccc(N2C(=O)CN3C(=O)CCC32)cc1C` (stereo not drawn) [Example 20, 1-(3,4-Dimethyl-phenyl)-tetrahydro-pyrrolo [1,2-a]imidazole-2,5-dione], 142 to 143 °C. Same read-out and setting: the same measure for `O=C1CCC2N1CC(=O)N2c1ccc2ccccc2c1` (stereo not drawn) [Example 21, 1-Naphthalen-2-yl-tetrahydro-pyrrolo [1,2-a]imidazole-2,5-dione]: 175 to 176 °C. The compound `CC(C)c1cccc(N2C(=O)CN3C(=O)CCC32)c1` (stereo not drawn) [Example 22, 1-(3-Isopropyl-phenyl)-tetrahydro-pyrrolo [1,2-a]imidazole-2,5-dione] displayed a melting point of 81 to 82 °C. In addition, in series [1], the “antihyperalgic effect compared with saline or vehicle treated group” value is “showed an antihyperalgic effect”. For `Cc1cc(N2C(=O)CN3C(=O)CCC32)ccc1Cl` (stereo not drawn) [Example 23, 1-(4-Chloro-3-methyl-phenyl)-tetrahydro-pyrrolo[1,2-a]imidazole-2,5-dione], the melting point fell in the range of 138 to 139 °C. Same read-out and setting: for `O=C1C(Cc2ccccc2)N2C(=O)CCC2N1c1ccccc1` (stereo not drawn) [Example 24, 3-Benzyl-1-phenyl-tetrahydro-pyrrolo [1,2-a]imidazole-2,5,-dione] the value was 134 to 136 °C.

`CC1C(=O)N(c2ccccc2)C2CCC(=O)N12` (stereo not drawn) [Example 25, 3-Methyl-1-phenyl-tetrahydro-pyrrolo [1,2-a]imidazole-2,5,-dione] gave a melting point of 137 to 138 °C. On the same count and under the same terms, the same measure for `CC(C)CC1C(=O)N(c2ccccc2)C2CCC(=O)N12` (stereo not drawn) [Example 26, 3-Isobutyl-1-phenyl-tetrahydro-pyrrolo [1,2-a]imidazole-2,5,-dione]: 101 to 102 °C; for `Cc1cc(F)cc(N2C(=O)CN3C(=O)CCC32)c1` (stereo not drawn) [Example 27, 1-(3-Fluoro-5-methyl-phenyl)-tetrahydro-pyrrolo[1,2-a]imidazole-2,5-dione]: 111 to 113 °C. The same measure, in the same setting: the same measure for `Cc1ccc(N2C(=O)CN3C(=O)CCC32)cc1F` (stereo not drawn) [Example 28, 1-(3-Fluoro-4-methyl-phenyl)-tetrahydro-pyrrolo[1,2-a]imidazole-2,5-dione]: 136 to 137 °C; for `CC12CCC(=O)N1CC(=O)N2c1ccccc1` (stereo not drawn) [Example 29, 7a-Methyl-1-phenyl-tetrahydro-pyrrolo [1,2-a]imidazole-2,5-dione]: 154 to 155 °C. On to `CC(C)c1ccc(N2C(=O)CN3C(=O)CCC32)cc1` (stereo not drawn) [Example 33, 1-(4-Isopropyl-phenyl)-tetrahydro-pyrrolo [1,2-a]imidazole-2,5-dione], for which the melting point is 124 to 125 °C.

For the compound `O=C1CCC2N1CC(=O)N2c1ccc(CO)cc1` (stereo not drawn) [Example 34, 1-(4-Hydroxymethyl-phenyl)-tetrahydro-pyrrolo[1,2-a]imidazole-2,5-dione], the melting point was 159 to 161 °C. On the same count and under the same terms, for `O=C(O)c1ccc(N2C(=O)CN3C(=O)CCC32)cc1` (stereo not drawn) [Example 35, 4-(2,5-Dioxo-hexahydro-pyrrolo[1,2-a]imidazole-1-yl)-benzoic acid] the value was 252 to 253 °C; for `CCOC(=O)c1ccc(N2C(=O)CN3C(=O)CCC32)cc1` (stereo not drawn) [Example 36, 4-(2,5-Dioxo-hexahydro-pyrrolo[1,2-a]imidazole-1-yl)-benzoic acid ethyl ester], 158 to 159 °C. `CS(=O)(=O)c1ccc(N2C(=O)CN3C(=O)CCC32)cc1` (stereo not drawn) [Example 37, 1-(4-Methanesulfonyl-phenyl)-tetrahydro-pyrrolo[1,2-a]imidazole-2,5-dione] gave a melting point of 143 to 145 °C. Regarding `O=C1CCC2N1CC(=O)N2c1ccc(F)cc1` (stereo not drawn) [Example 38, 1-(4-Fluoro-phenyl)-tetrahydro-pyrrolo [1,2-a]imidazole-2,5-dione], the melting point fell in the range of 158 to 159 °C. Still for that read-out and setting: for `O=C1CCC2N1CC(=O)N2c1ccccn1` (stereo not drawn) [Example 40, 1-Pyridin-2-yl-tetrahydro-pyrrolo[1,2-a] imidazole-2,5-dione] the value was 139 to 140 °C; for `O=C1CCC2N1CC(=O)N2c1cccnc1` (stereo not drawn) [Example 41, 1-Pyridin-3-yl-tetrahydro-pyrrolo[1,2-a] imidazole-2,5-dione], 180 to 182 °C.

`Cc1ccc(N2C(=O)CN3C(=O)CCC32)nc1` (stereo not drawn) [Example 42, 1-(5-Methylpyridin-2-yl)-tetrahydropyrrolo [1,2-a]imidazole-2,5-dione]: the melting point lay in the range of 158 to 159 °C.

Turning to `N#Cc1ccccc1N1C(=O)CN2C(=O)CCC21` (stereo not drawn) [Example 43, 1-(2-Cyano-phenyl)-tetrahydro-pyrrolo [1,2-a]imidazole-2,5-dione], the melting point lay in the range of 94 to 95 °C. On to `O=C1CCC2N1CC(=O)N2c1cccc(F)c1` (stereo not drawn) [Example 44, 1-(3-Fluoro-phenyl)-tetrahydro-pyrrolo [1,2-a]imidazole-2,5-dione], for which the melting point was 145 to 149 °C. Consider `NCC1(CC(=O)O)CCCCC1` [GABAPENTIN, reference compound], for which the “antihyperalgic effect compared with saline or vehicle treated group” value in series [1] was “showed an antihyperalgic effect”. On the same count and under the same terms, for `CC[C@@H](C(N)=O)N1CCCC1=O` [LEVETIRACETAM, 2-(2-oxopyrrolidin-1-yl) butyramide, reference compound] the value was “showed an antihyperalgic effect”.
